Measurements taken from patent publication US20240148821A1, “PHARMACEUTICAL USE OF CYCLIC PEPTIDE COMPOUND” (CHUGAI SEIYAKU KABUSHIKI KAISHA, priority 2021, published 2024).
Bridge positions count the residues as written; N and C are the ends. Square brackets hold non-standard residues; d marks the D form. Peptide text beside a SMILES is read from it. * marks the point of attachment. hPhe(3,5-F2-4-CF3) = N[C@@H](CCc1cc(F)c(C(F)(F)F)c(F)c1)C(=O)O; hPhe(3-Cl-4-CF3) = N[C@@H](CCc1ccc(C(F)(F)F)c(Cl)c1)C(=O)O; NMePhe(4-CF3) = CN[C@@H](Cc1ccc(C(F)(F)F)cc1)C(=O)O; Piperazinyl(4-(3-oxetanyl)) = C1OCC1N1CCN(*)CC1; Phe(2-F,5-Br) = N[C@@H](Cc1cc(Br)ccc1F)C(=O)O; 3Oxa8azabicyclo(3.2.1)octane = C1CC2COCC1N2*; NMeAbu(4,4,4-F3) = CN[C@@H](CC(F)(F)F)C(=O)O; Phe(2,6-F2) = N[C@@H](Cc1c(F)cccc1F)C(=O)O; NMeAla(cPent) = CN[C@@H](CC1CCCC1)C(=O)O; NMeGly(cPent) = CN[C@H](C(=O)O)C1CCCC1; Phe(3-I) = N[C@@H](Cc1cccc(I)c1)C(=O)O; Pro(4,4-F2) = O=C(O)[C@@H]1CC(F)(F)CN1; NMeY = CN[C@@H](Cc1ccc(O)cc1)C(=O)O; NMeCha = CN[C@@H](CC1CCCCC1)C(=O)O; NMeChg = CN[C@H](C(=O)O)C1CCCCC1; NMeI = CC[C@H](C)[C@H](NC)C(=O)O; NMeD = CN[C@@H](CC(=O)O)C(=O)O; NMeL = CN[C@@H](CC(C)C)C(=O)O; d(β3hP) = O=C(O)C[C@H]1CCCN1; NMeNva = CCC[C@H](NC)C(=O)O; NMeAbu = CC[C@H](NC)C(=O)O; Morpholide = C1CN(*)CCO1; NMeA = CN[C@@H](C)C(=O)O; NMeAib = CNC(C)(C)C(=O)O; Nle = CCCC[C@H](N)C(=O)O; Piperidide = C1CCN(*)CC1; Pra = C#CC[C@H](N)C(=O)O; Pyrrolidide = C1CCN(*)C1; Ac5c = NC1(C(=O)O)CCCC1; Aze = O=C(O)[C@@H]1CCN1; Ac4c = NC1(C(=O)O)CCC1; Sar = CNCC(=O)O

Tested on: Human pancreatic cancer cell line AsPC-1 (G12D mutation Kras)
Test: AsPC-1 cell growth inhibition (AsPC-1 CGI)
Type: cell-based
Conditions: read-out: AsPC-1 cell growth inhibition, 50% growth inhibitory concentration (IC50 value); 96 hours, CellTiter-Glo, values classified in ranges
Method: Test compounds were serially dilated with dimethyl sulfoxide, and 200 nL was then dispensed to a U-bottom 96-well plate using Labcyte Echo. […] The cell suspension was dispensed to a. plate containing a test compound at 100 μL per well and incubated at 37° C. in a 5% carbon dioxide gas incubator. 96 hours later, 80 μL of CellTiter-Glo (Promega) was added to each well and fluorescence was measured.

Structure (SMILES)	IC50
CCC[C@H]1C(=O)N[C@@H]([C@@H](C)CC)C(=O)N(C)CC(=O)N(C)CC(=O)N(C)[C@@H](CC2CCCCC2)C(=O)N(C)CC(=O)N[C@@H](CCc2cc(F)c(C(F)(F)F)c(F)c2)C(=O)N2CC(F)(F)C[C@H]2C(=O)NC2(CCCC2)C(=O)N(C)[C@@H](C2CCCCC2)C(=O)N(C)[C@H](C(=O)N2CCCC2)CC(=O)N1C [Compound 1160] ([NMeNva]I[Sar][Sar][NMeCha][Sar][hPhe(3,5-F2-4-CF3)][Pro(4,4-F2)][Ac5c][NMeChg][NMeD]-Pyrrolidide; lactam N-11)	≤ 20 nM
CC[C@H](C)[C@@H]1NC(=O)[C@H](CC(C)C)N(C)C(=O)C[C@@H](C(=O)N2CCCC2)N(C)C(=O)[C@H](C2CCCCC2)N(C)C(=O)C2(CCC2)NC(=O)[C@@H]2CC(F)(F)CN2C(=O)[C@H](CCc2ccc(C(F)(F)F)c(Cl)c2)NC(=O)CN(C)C(=O)[C@H](CC2CCCCC2)N(C)C(=O)CN(C)C(=O)CN(C)C1=O [Compound 1163] ([NMeL]I[Sar][Sar][NMeCha][Sar][hPhe(3-Cl-4-CF3)][Pro(4,4-F2)][Ac4c][NMeChg][NMeD]-Pyrrolidide; lactam N-11)	≤ 20 nM
CC[C@H](C)[C@@H]1NC(=O)[C@H](CC(C)C)N(C)C(=O)C[C@@H](C(=O)N2CCCC2)N(C)C(=O)[C@H](C2CCCCC2)N(C)C(=O)C2(CCC2)NC(=O)[C@@H]2CCCN2C(=O)[C@H](CCc2cc(F)c(C(F)(F)F)c(F)c2)NC(=O)CN(C)C(=O)[C@H](CC2CCCCC2)N(C)C(=O)CN(C)C(=O)CN(C)C1=O [Compound 1165] ([NMeL]I[Sar][Sar][NMeCha][Sar][hPhe(3,5-F2-4-CF3)]P[Ac4c][NMeChg][NMeD]-Pyrrolidide; lactam N-11)	≤ 20 nM
CC[C@H](C)[C@@H]1NC(=O)[C@H](CC(C)C)N(C)C(=O)C[C@@H](C(=O)N2CCCC2)N(C)C(=O)[C@H](C2CCCC2)N(C)C(=O)C2(CCCC2)NC(=O)[C@@H]2CC(F)(F)CN2C(=O)[C@H](CCc2cc(F)c(C(F)(F)F)c(F)c2)NC(=O)CN(C)C(=O)[C@H](CC2CCCCC2)N(C)C(=O)CN(C)C(=O)CN(C)C1=O [Compound 1166] ([NMeL]I[Sar][Sar][NMeCha][Sar][hPhe(3,5-F2-4-CF3)][Pro(4,4-F2)][Ac5c][NMeGly(cPent)][NMeD]-Pyrrolidide; lactam N-11)	≤ 20 nM
C#CC[C@@H]1NC(=O)[C@H](Cc2cccc(I)c2)NC(=O)CN(C)C(=O)[C@H](Cc2ccc(OC)cc2)N(C)C(=O)CN(C)C(=O)CN(C)C(=O)[C@H]([C@@H](C)CC)NC(=O)[C@H](CC(C)C)N(C)C(=O)C[C@@H](C(=O)N2CCCCC2)N(C)C(=O)[C@H](CC(C)C)NC(=O)C(C)(C)N(C)C1=O [Compound 1169] ([NMeL]I[Sar][Sar][NMeY](Me)[Sar][Phe(3-I)][Pra][NMeAib]L[NMeD]-Piperidide; lactam N-11)	> 500 nM
CCCC[C@@H]1NC(=O)[C@H](Cc2cc(Br)ccc2F)NC(=O)CN(C)C(=O)[C@H](Cc2ccc(OC)cc2)N(C)C(=O)[C@@H]2CCN2C(=O)[C@H](C)N(C)C(=O)[C@H]([C@@H](C)CC)NC(=O)[C@H](CC)N(C)C(=O)C[C@@H](C(=O)N2CCCCC2)N(C)C(=O)[C@H](CC(C)C)NC(=O)C(C)(C)N(C)C1=O [Compound 1177] ([NMeAbu]I[NMeA][Aze][NMeY](Me)[Sar][Phe(2-F,5-Br)][Nle][NMeAib]L[NMeD]-Piperidide; lactam N-11)	> 500 nM
CC[C@H](C)[C@@H]1NC(=O)[C@H](CC(C)C)N(C)C(=O)C[C@@H](C(=O)N2C3CCC2COC3)N(C)C(=O)[C@H](C2CCCCC2)N(C)C(=O)C2(CCCC2)NC(=O)[C@@H]2CC(F)(F)CN2C(=O)[C@H](CCc2ccc(C(F)(F)F)c(Cl)c2)NC(=O)CN(C)C(=O)[C@H](CC2CCCCC2)N(C)C(=O)CN(C)C(=O)CN(C)C1=O [Compound 1179] ([NMeL]I[Sar][Sar][NMeCha][Sar][hPhe(3-Cl-4-CF3)][Pro(4,4-F2)][Ac5c][NMeChg][NMeD]-{3Oxa8azabicyclo(3.2.1)octane}; lactam N-11)	≤ 20 nM
CC[C@H](C)[C@@H]1NC(=O)[C@H](CC(F)(F)F)N(C)C(=O)C[C@@H](C(=O)N2CCOCC2)N(C)C(=O)[C@H](C2CCCCC2)N(C)C(=O)C2(CCCC2)NC(=O)[C@@H]2CC(F)(F)CN2C(=O)[C@H](CCc2ccc(C(F)(F)F)c(Cl)c2)NC(=O)CN(C)C(=O)[C@H](Cc2ccc(C(F)(F)F)cc2)N(C)C(=O)CN(C)C(=O)CN(C)C1=O [Compound 1182] ([NMeAbu(4,4,4-F3)]I[Sar][Sar][NMePhe(4-CF3)][Sar][hPhe(3-Cl-4-CF3)][Pro(4,4-F2)][Ac5c][NMeChg][NMeD]-Morpholide; lactam N-11)	≤ 20 nM
CC[C@H](C)[C@@H]1NC(=O)[C@H](CC2CCCC2)N(C)C(=O)C[C@@H](C(=O)N2CCCC2)N(C)C(=O)[C@H]([C@@H](C)CC)N(C)C(=O)C2(CCCC2)NC(=O)[C@@H]2CCCN2C(=O)[C@H](CCc2ccc(C(F)(F)F)c(Cl)c2)NC(=O)CN(C)C(=O)[C@H](Cc2ccc(C(F)(F)F)cc2)N(C)C(=O)[C@@H]2CCN2C(=O)[C@H](C)N(C)C1=O [Compound 1183] ([NMeAla(cPent)]I[NMeA][Aze][NMePhe(4-CF3)][Sar][hPhe(3-Cl-4-CF3)]P[Ac5c][NMeI][NMeD]-Pyrrolidide; lactam N-11)	≤ 20 nM
CC[C@H](C)[C@@H]1NC(=O)[C@H](CC(C)C)N(C)C(=O)C[C@H]2CCCN2C(=O)[C@H](C2CCCCC2)N(C)C(=O)C2(CCCC2)NC(=O)[C@@H]2CCCN2C(=O)[C@H](CCc2ccc(C(F)(F)F)c(Cl)c2)NC(=O)CN(C)C(=O)[C@H](CC2CCCCC2)N(C)C(=O)CN(C)C(=O)CN(C)C1=O [Compound 1185] (cyclo([Ac5c][NMeChg][d(β3hP)][NMeL]I[Sar][Sar][NMeCha][Sar][hPhe(3-Cl-4-CF3)]P))	> 500 nM
CC[C@H](C)[C@@H]1NC(=O)[C@H](CC(C)C)N(C)C(=O)C[C@@H](C(=O)N2CCCCC2)N(C)C(=O)[C@H](C2CCCCC2)N(C)C(=O)C2(CCCC2)NC(=O)[C@@H]2CCCN2C(=O)[C@H](CCc2ccc(C(F)(F)F)c(Cl)c2)NC(=O)CN(C)C(=O)[C@H](CC2CCCCC2)N(C)C(=O)[C@H](C)N(C)C(=O)CN(C)C1=O [Compound 1186] ([NMeL]I[Sar][NMeA][NMeCha][Sar][hPhe(3-Cl-4-CF3)]P[Ac5c][NMeChg][NMeD]-Piperidide; lactam N-11)	> 500 nM
CCCC[C@@H]1NC(=O)[C@H](Cc2c(F)cccc2F)NC(=O)CN(C)C(=O)[C@H](Cc2ccc(OC)cc2)N(C)C(=O)[C@@H]2CCN2C(=O)[C@H](C)N(C)C(=O)[C@H]([C@@H](C)CC)NC(=O)[C@H](CC)N(C)C(=O)C[C@@H](C(=O)N2CCCCC2)N(C)C(=O)[C@H](CC(C)C)NC(=O)C(C)(C)N(C)C1=O [Compound 1187] ([NMeAbu]I[NMeA][Aze][NMeY](Me)[Sar][Phe(2,6-F2)][Nle][NMeAib]L[NMeD]-Piperidide; lactam N-11)	> 500 nM
CC[C@H](C)[C@@H]1NC(=O)[C@H](CC(C)C)N(C)C(=O)C[C@@H](C(=O)N2CCN(C3COC3)CC2)NC(=O)[C@H]([C@@H](C)CC)N(C)C(=O)C2(CCCC2)NC(=O)[C@@H]2CCCN2C(=O)[C@H](CCc2ccc(C(F)(F)F)c(Cl)c2)NC(=O)CN(C)C(=O)[C@H](CC2CCCCC2)N(C)C(=O)CN(C)C(=O)CN(C)C1=O [Compound 1191] ([NMeL]I[Sar][Sar][NMeCha][Sar][hPhe(3-Cl-4-CF3)]P[Ac5c][NMeI]D-{Piperazinyl(4-(3-oxetanyl))}; lactam N-11)	> 500 nM
